Each structure is given as a SMILES string. “And” between values parts separate entries of the source, which are not always exact repeats. Identical values can stand only once.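 All cell lines were grown in 96-well plates and treated with compound for 48 hours. Abbreviation: GI50, concentration required for 50% inhibition of growth. TGI is the concentration that stops growth completely.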

We go through ten molecules from PubChem BioAssay (NCI).

Among the test systems are OVCAR-3 ovarian; SNB-19 CNS; HCC-2998 colon; MDA-MB-231 breast; U251 CNS; NCI-H23 lung; MDA-MB-435; HS 578T breast; IGROV1 ovarian; CCRF-CEM leukemia.
Experiment in all cases: NCI-60 cell line screen, 48 h

For `CCN1C(=O)N(CC)C2C1NN=c1s/c(=C3\C(=O)N(CC(C)(C)C)c4ccccc43)c(=O)n12` (configuration not stated), the GI50 in the assay on OVCAR-3 ovarian is 3.17 µM; in the assay with SNB-19 CNS, 4.05 µM; in the assay with HCC-2998 colon, 3.4 µM; in the assay with MDA-MB-231 breast, 0.151 µM; with U251 CNS it was 4.13 µM; in the assay on NCI-H23 lung, 3.39 µM. Also, the GI50 with MDA-MB-435 is 1.54 µM; in the assay with HS 578T breast it was 2.66 µM; in the assay with IGROV1 ovarian it was 3.91 µM; with CCRF-CEM leukemia, 3.62 µM. The TGI in the assay with OVCAR-3 ovarian turned out to be 12.1 µM; in the assay on SNB-19 CNS, 16 µM; with HCC-2998 colon, 13.8 µM; with MDA-MB-231 breast, 2.29 µM; in the assay with U251 CNS, 20.6 µM; in the assay on NCI-H23 lung it was 14.5 µM. Besides, the TGI in the assay with MDA-MB-435 is 7.1 µM; in the assay on HS 578T breast, 19.7 µM; in the assay on IGROV1 ovarian it was 23.6 µM; in the assay with CCRF-CEM leukemia, greater than 100 µM.
For the molecule `O=CN1CCN(CC(O)CN2CCCCC2)CC1` (configuration not stated), the TGI in the assay with OVCAR-3 ovarian, with SNB-19 CNS, in the assay with MDA-MB-231 breast, in the assay with U251 CNS, in the assay with NCI-H23 lung and in the assay with MDA-MB-435 was greater than 100 µM throughout. For the same molecule, the TGI with HS 578T breast, in the assay on IGROV1 ovarian and with CCRF-CEM leukemia was greater than 100 µM throughout.
For `COC(=O)[C@@H](C)C[C@H](Cc1ccccc1)NC(=O)c1csc([C@@H](C[C@H](C(C)C)N(C)C(=O)[C@@H](NC(=O)[C@H]2CCCCN2C)C2CCCCC2)OC(C)=O)n1`, the GI50 in the assay with SNB-19 CNS was 0.000718 µM and 0.0025 µM; with HCC-2998 colon, 0.000455 µM and 0.0025 µM; with MDA-MB-231 breast it was 0.00115 µM and 0.0025 µM; in the assay on U251 CNS, 0.000533 µM and 0.0025 µM; in the assay on NCI-H23 lung it was 0.00079 µM and 0.0025 µM; in the assay on MDA-MB-435, less than 0.0001 µM. Further, the GI50 with HS 578T breast was 0.0026 µM; in the assay on IGROV1 ovarian it was 0.000631 µM and 0.0025 µM; in the assay on CCRF-CEM leukemia, 0.00195 µM and 0.0025 µM. For the same molecule, the TGI with SNB-19 CNS is greater than 25 µM; in the assay with HCC-2998 colon, greater than 25 µM; in the assay on U251 CNS it was greater than 25 µM; in the assay with NCI-H23 lung, greater than 25 µM; in the assay on MDA-MB-435, 0.000368 µM; in the assay with IGROV1 ovarian, greater than 25 µM. The TGI in the assay with CCRF-CEM leukemia came to 5.8 µM.
`CCOc1ccncc1[N+](=O)[O-]`: the TGI in the assay with SNB-19 CNS, with MDA-MB-231 breast, in the assay on U251 CNS, in the assay with NCI-H23 lung, in the assay on MDA-MB-435 and with HS 578T breast was greater than 100 µM throughout. The TGI in the assay with IGROV1 ovarian and in the assay on CCRF-CEM leukemia was greater than 100 µM in each case.
Turning to `Cc1nc(-[n+]2nc(-c3ccncc3)nn2-c2ccccc2)sc1C`, the TGI in the assay on SNB-19 CNS, with HCC-2998 colon, in the assay with MDA-MB-231 breast, in the assay with U251 CNS, with NCI-H23 lung and with MDA-MB-435 was greater than 100 µM each time. Besides, the TGI in the assay with HS 578T breast, in the assay with IGROV1 ovarian and with CCRF-CEM leukemia was greater than 100 µM throughout.
As to `[N-]=[N+]=Nc1cc(=O)[nH]nc1-c1ccccc1`, the TGI with OVCAR-3 ovarian, with HCC-2998 colon, in the assay with MDA-MB-231 breast, with U251 CNS, with NCI-H23 lung and with MDA-MB-435 was greater than 100 µM in each case. In addition, the TGI in the assay with HS 578T breast, in the assay with IGROV1 ovarian and with CCRF-CEM leukemia was greater than 100 µM each time.
`O=C1NC(=O)C(c2cccc([N+](=O)[O-])c2)=C1Nc1cc(Cl)c(O)c(Cl)c1`: the GI50 is greater than 17.9 µM in the assay with OVCAR-3 ovarian; greater than 25 µM with SNB-19 CNS; greater than 25 µM in the assay with HCC-2998 colon; greater than 25 µM in the assay with MDA-MB-231 breast; greater than 25 µM in the assay on U251 CNS; greater than 25 µM with MDA-MB-435. Also, the GI50 in the assay with HS 578T breast was 7.03 µM; with IGROV1 ovarian, greater than 25 µM. The TGI in the assay with OVCAR-3 ovarian, in the assay with SNB-19 CNS, in the assay on HCC-2998 colon, with MDA-MB-231 breast, with U251 CNS and in the assay with MDA-MB-435 was greater than 25 µM throughout. The TGI in the assay with HS 578T breast and in the assay with IGROV1 ovarian was greater than 25 µM in each case.
For the molecule `CC1=C(C(=O)Nc2ccc(Cl)c(Cl)c2)C(c2cccc(Oc3ccccc3)c2)NC(=O)N1` (configuration not stated), the GI50 with OVCAR-3 ovarian is 7.75 µM; in the assay on SNB-19 CNS, 20.1 µM; with MDA-MB-231 breast, 6.15 µM; in the assay with U251 CNS, 5.28 µM; in the assay with MDA-MB-435 it was 6.33 µM; in the assay with HS 578T breast, 6.72 µM. The values for the GI50 in the assay with IGROV1 ovarian and with CCRF-CEM leukemia were 5.6 µM and greater than 50 µM, respectively. The TGI was 17 µM in the assay on OVCAR-3 ovarian; greater than 50 µM in the assay with SNB-19 CNS; 16.3 µM with MDA-MB-231 breast; 14.7 µM with U251 CNS; 16.7 µM in the assay with MDA-MB-435; 22.3 µM in the assay on HS 578T breast. Moreover, the results for the TGI in the assay on IGROV1 ovarian and in the assay on CCRF-CEM leukemia were 32.6 µM and greater than 50 µM, respectively.
In the case of `COc1ncc(-c2ccc3ncnc(Nc4cccc(Cl)c4)c3c2)cc1NS(=O)(=O)C1CC1`, the GI50 was 3.92 µM in the assay on SNB-19 CNS; greater than 100 µM with HCC-2998 colon; 3.38 µM in the assay with MDA-MB-231 breast; 4.75 µM with U251 CNS; 3.8 µM in the assay with NCI-H23 lung; greater than 100 µM in the assay on MDA-MB-435. Also, the results for the GI50 with HS 578T breast and with CCRF-CEM leukemia were 0.365 µM and greater than 100 µM, respectively. In addition, the TGI in the assay with SNB-19 CNS, in the assay with HCC-2998 colon, with MDA-MB-231 breast, with U251 CNS, in the assay on NCI-H23 lung and in the assay with MDA-MB-435 was greater than 100 µM in each case. Further, the TGI in the assay on HS 578T breast and with CCRF-CEM leukemia was greater than 100 µM throughout.
For the molecule `NC(=O)OCCn1cc(-c2nc(-c3c[nH]c4ncccc34)cs2)c2ccccc21`, the GI50 in the assay on OVCAR-3 ovarian was 1.27 µM; in the assay on SNB-19 CNS, 2.57 µM; in the assay on HCC-2998 colon, 1.99 µM; in the assay with MDA-MB-231 breast it was 1.1 µM; with U251 CNS, 1.91 µM; in the assay with NCI-H23 lung it was 2.02 µM. Besides, the GI50 is 1.07 µM with HS 578T breast, 0.138 µM with IGROV1 ovarian and 2.65 µM in the assay with CCRF-CEM leukemia. Moreover, the TGI in the assay with OVCAR-3 ovarian is 3.83 µM; in the assay on SNB-19 CNS it was 43.8 µM; with HCC-2998 colon, 6.54 µM; in the assay with MDA-MB-231 breast it was 4.38 µM; with U251 CNS, 5.08 µM; in the assay with NCI-H23 lung it was greater than 100 µM. For the same molecule, the TGI in the assay on HS 578T breast amounted to 4.25 µM; with IGROV1 ovarian, 1.95 µM; in the assay with CCRF-CEM leukemia it was 16.9 µM.
